Source: publication PMC5927774, “Isoxazol-5(2H)-one: a new scaffold for potent human neutrophil elastase (HNE) inhibitors” (Journal of Enzyme Inhibition and Medicinal Chemistry, 2017)

Tests used:
[1] = molecular target: T1, HNE (human neutrophil elastase) (Homo sapiens, UniProt P08246); test: HNE inhibition assay (fluorogenic substrate); assay type: biochemical; settings: for IC50: Table 1, mean ± SD of three independent experiments, NA = no inhibitory activity at the highest concentration tested (50 μM)
T1 construct: purchased Calbiochem, La Jolla, CA
T1 sequence (P08246 30-267): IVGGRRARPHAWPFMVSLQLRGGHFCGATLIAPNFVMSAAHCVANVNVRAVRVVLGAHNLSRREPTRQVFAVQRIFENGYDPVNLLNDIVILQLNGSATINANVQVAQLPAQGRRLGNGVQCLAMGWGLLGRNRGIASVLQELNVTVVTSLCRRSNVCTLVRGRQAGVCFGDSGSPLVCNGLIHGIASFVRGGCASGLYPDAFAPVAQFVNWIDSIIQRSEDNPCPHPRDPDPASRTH
Description: HNE inhibition assay. Compounds were dissolved in 100% DMSO at 5 mM stock concentrations. The final concentration of DMSO in the reactions was 1%, and this level of DMSO had no effect on enzyme activity. The HNE inhibition assay was performed in black flat-bottom 96-well microtiter plates. Briefly, a buffer solution containing 200 mM Tris–HCl, pH 7.5, 0.01% bovine serum albumin, 0.05% Tween-20, and 20 mU/ml of HNE (Calbiochem, La Jolla, CA) was added to wells containing different concentrations of each compound. The reaction was initiated by addition of 25 μM elastase substrate (N-methylsuccinyl-Ala-Ala-Pro-Val-7-amino-4-methylcoumarin, Calbiochem) in a final reaction volume of 100 μL/well. Kinetic measurements were obtained every 30 s for 10 min at 25 °C using a Fluoroskan Ascent FL fluorescence microplate reader (Thermo Electron, Waltham, MA) with excitation and emission wavelengths at 355 and 460 nm, respectively. For all compounds tested, the concentration of inhibitor that caused 50% inhibition of the enzymatic reaction (IC50) was calculated by plotting % inhibition versus logarithm of inhibitor concentration (at least six points). The data are presented as the mean values of at least three independent experiments with relative standard deviations of <15%.

[2] = Spontaneous hydrolysis (chemical stability) in aqueous buffer; assay type: physicochemical; settings: 25 °C, 0.05 M phosphate buffer, pH 7.3; read-out: t1/2 (h) Spontaneous hydrolysis (converted)
Description: (§1) Spontaneous hydrolysis of selected derivatives was evaluated at 25 °C in 0.05 M phosphate buffer, pH 7.3. Kinetics of hydrolysis were monitored by measuring changes in absorbance spectra over time using a SpectraMax Plus microplate spectrophotometer (Molecular Devices, Sunnyvale, CA). Absorbance (At) at the characteristic absorption maxima of each compound was measured at the indicated times until no further absorbance decreases occurred (A∞)[30]. Using these measurements, we created semilogarithmic plots of log(At – A∞) versus time, and k′ values were determined from the slopes of these plots. Half-conversion times were calculated using t1/2=0.693/k′, as described previously.

HNE [3] = molecular target: T2, HNE (Homo sapiens, UniProt P08246); test: Compound hydrolysis in the presence of HNE; assay type: biochemical; settings: for half-life: human, phosphate buffer supplemented with HNE (400 mU/ml), pH 7.3, 400 mU/ml HNE, read-out: t1/2 (h) In the presence HNE (converted)
T2 construct: purchased Calbiochem, La Jolla, CA
T2 sequence (P08246 30-267): T1 sequence (P08246 30-267)
Description: as §1
In the presence of 400 mU/ml HNE, the hydrolysis was 2.2–4.8-fold higher than for spontaneous hydrolysis (i.e. without HNE) (Table 3).
Figure 5. Analysis of compound 2i spontaneous hydrolysis. Compound 2i (80 μM) was incubated in 0.05 M phosphate buffer ([…], 25 °C) supplemented with […] HNE, as indicated. Spontaneous hydrolysis was monitored by measuring changes in absorbance at 275 nm (absorption maximum of compound 2i) over time. The data are presented as the mean ± SD of triplicate samples from one experiment, which is representative of two independent experiments.

HNE [4] = molecular target: T2, HNE; test: Reversibility of the HNE-inhibitor complex over time (kinetic curves); assay type: biochemical; settings: compound at 5 μM
Description: (§2) However, inhibition by compound 2s was reversed after 10 min. […] To better understand the mechanism of action of this isoxazolone HNE inhibitor, we performed additional kinetic experiments.
Figure 6. Evaluation of HNE inhibition by selected isoxazolone derivatives. HNE was incubated with the indicated compounds at 5 μM concentrations, and kinetic curves monitoring substrate cleavage catalysed by HNE are shown. Representative curves are from three independent experiments.

HNE [5] = molecular target: T2, HNE; test: Lineweaver-Burk analysis of HNE inhibition; assay type: biochemical; settings: double-reciprocal Lineweaver-Burk plot
Description: as §2
Figure 7. Kinetics of HNE inhibition by compound 2o. Representative double-reciprocal Lineweaver–Burk plot from three independent experiments.

| SMILES | IC50 [1] | half-life [2] | half-life (HNE [3]) | also measured |
| --- | --- | --- | --- | --- |
| Cc1c(C)n(C(=O)C2CC2)oc1=O [Compound 2a, 2-(Cyclopropanecarbonyl)-3,4-dimethylisoxazol-5(2H)-one] | 120 ± 23 nM |  |  |  |
| Cc1cccc(C(=O)n2oc(=O)c(C)c2C)c1 [Compound 2b, 3,4-Dimethyl-2-(3-methylbenzoyl)isoxazol-5(2H)-one] | 10900 ± 1200 nM |  |  |  |
| CCc1c(C)n(C(=O)C2CC2)oc1=O [Compound 2c, 2-(Cyclopropanecarbonyl)-4-ethyl-3-methylisoxazol-5(2H)-one] | 130 ± 25 nM |  |  |  |
| CCc1c(C)c(=O)on1C(=O)c1cccc(C)c1 [Compound 2f, 3-Ethyl-4-methyl-2-(3-methylbenzoyl)isoxazol-5(2H)-one] | 1800 ± 320 nM |  |  |  |
| CCOC(=O)c1c(C)c(=O)on1C(=O)C1CC1 [Compound 2g, Ethyl 2-(cyclopropanecarbonyl)-4-methyl-5-oxo-2,5-dihydroisoxazole-3-carboxylate] | 440 ± 140 nM |  |  |  |
| CCOC(=O)c1c(C)c(=O)on1C(=O)c1cccc(C)c1 [Compound 2h, Ethyl 4-methyl-2-(3-methylbenzoyl)-5-oxo-2,5-dihydroisoxazole-3-carboxylate] | 39700 ± 5100 nM |  |  |  |
| CCc1cc(=O)on1C(=O)C1CC1 [Compound 2i, 2-(Cyclopropanecarbonyl)-3-ethylisoxazol-5(2H)-one] | 96 ± 22 nM | 19.3 h | 4 h | hydrolysis with increasing HNE concentration (in words) (HNE [3]; 80 μM compound, 0.05 M phosphate buffer pH 7.5, 25 °C, 0, 50, 200, 400 μg/ml HNE, absorbance at 275 nm): dose-dependent hydrolysis; time during which HNE inhibition was maximal (HNE [4]): 30 min |
| CCc1cc(=O)on1C(=O)c1cccc(C)c1 [Compound 2j, 3-Ethyl-2-(3-methylbenzoyl)isoxazol-5(2H)-one] | 43 ± 11 nM | 5.3 h | 2.1 h | fold higher inhibitory activity with respect to the corresponding 4-methyl derivative ([1]; 2i vs 2e, 2j vs 2f): 42 fold; time during which HNE inhibition was maximal (HNE [4]): 30 min; melting point: 81 to 84 °C |
| CCC(=O)n1oc(=O)cc1C(C)C [Compound 2k, 3-Isopropyl-2-propionylisoxazol-5(2H)-one] | 1100 ± 140 nM |  |  | melting point: 92 to 95 °C |
| CC(C)c1cc(=O)on1C(=O)C1CCCC1 [Compound 2m, 2-(Cyclopentanecarbonyl)-3-isopropylisoxazol-5(2H)-one] | 560 ± 150 nM |  |  |  |
| Cc1ccc(C(=O)n2oc(=O)cc2C(C)C)cc1 [Compound 2o, 3-Isopropyl-2-(4-methylbenzoyl)isoxazol-5(2H)-one] | 20 ± 7 nM | 8.9 h | 3.4 h | time after which HNE inhibition was reversed (HNE [4]): 2 h; mechanism of HNE inhibition (in words) (HNE [5]): competitive HNE inhibitor; melting point: 77 to 79 °C |
| CC(C)c1cc(=O)on1C(=O)c1ccc(C#N)cc1 [Compound 2q, 4-(3-Isopropyl-5-oxo-2,5-dihydroisoxazole-2-carbonyl)benzonitrile] | 18200 ± 2500 nM |  |  | melting point: 113 to 115 °C |
| CC(C)c1cc(=O)on1C(=O)c1ccc(C(F)(F)F)cc1 [Compound 2s, 3-Isopropyl-2-(4-(trifluoromethyl)benzoyl)isoxazol-5(2H)-one] | 34 ± 12 nM | 3.1 h | 0.9 h | time after which HNE inhibition was reversed (HNE [4]): 0.167 h |
| Cc1cccc(C(=O)n2oc(=S)cc2C(C)C)c1 [Compound 3b, (3-Isopropyl-5-thioxoisoxazol-2(5H)-yl)-(m-tolyl)methanone] |  |  |  | HNE inhibitory activity (in words) [1]: inactivity |
| Cc1cccc(Cn2oc(=O)c(C)c2C)c1 [Compound 4a, 3,4-Dimethyl-2-(3-methylbenzyl)isoxazol-5(2H)-one] |  |  |  | melting point: 80 to 83 °C |

The remaining molecules from weak to strong by IC50 [1], led by results:

| IC50 [1] | half-life [2] | half-life (HNE [3]) | SMILES | also measured |
| --- | --- | --- | --- | --- |
| 6500 ± 1700 nM |  |  | CC(C)c1cc(=O)on1C(=O)c1cccc(C#N)c1 [Compound 2p, 3-(3-Isopropyl-5-oxo-2,5-dihydroisoxazole-2-carbonyl)benzonitrile] |  |
| 2200 ± 280 nM |  |  | CCc1c(C)c(=O)on1C(=O)C1CC1 [Compound 2e, 2-(Cyclopropanecarbonyl)-3-ethyl-4-methylisoxazol-5(2H)-one] |  |
| 2100 ± 310 nM |  |  | CC(C)c1cc(=S)on1C(=O)C1CC1 [Compound 3a, Cyclopropyl-(3-isopropyl-5-thioxoisoxazol-2(5H)-yl)methanone] |  |
| 1200 ± 220 nM |  |  | CC(C)c1cc(=O)on1C(=O)c1cccc(C(F)(F)F)c1 [Compound 2r, 3-Isopropyl-2-(3-(trifluoromethyl)benzoyl)isoxazol-5(2H)-one] |  |
| 94 ± 23 nM | 7.7 h | 3.5 h | CCc1c(C)n(C(=O)c2cccc(C)c2)oc1=O [Compound 2d, 4-Ethyl-3-methyl-2-(3-methylbenzoyl)isoxazol-5(2H)-one] | time during which HNE inhibition was maximal (HNE [4]): 30 min |
| 42 ± 11 nM | 6.2 h | 2.6 h | Cc1cccc(C(=O)n2oc(=O)cc2C(C)C)c1 [Compound 2n, 3-Isopropyl-2-(3-methylbenzoyl)isoxazol-5(2H)-one] | time during which HNE inhibition was maximal (HNE [4]): 30 min |
| 34 ± 9 nM | 19.3 h | 4.3 h | CC(C)c1cc(=O)on1C(=O)C1CC1 [Compound 2l, 2-(Cyclopropanecarbonyl)-3-isopropylisoxazol-5(2H)-one] | time during which HNE inhibition was maximal (HNE [4]): 30 min |
